Reference: ChEMBL document CHEMBL1201862, “PubChem BioAssay data set” (2004)
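Interpolation was linear, between the two tested concentrations surrounding the appropriate level; five concentrations were tested over 48 hours in 96-well plates. Abbreviation: GI50, concentration required for 50% inhibition of growth.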 Active and inactive are the calls of the source. Cut-off read from the data, not from the text of the source: active = GI50 up to about 1.1 µM and inactive = higher.

Assays:
Assay in all cases: NCI-60 cell line screen, 48 h
NCI-H522 = test system: NCI-H522
NCI-H460 = test system: NCI-H460
UACC-62 = test system: UACC-62
OVCAR-8 = test system: OVCAR-8
HCT-116 = test system: HCT-116
UACC-257 = test system: UACC-257
HCT-15 = test system: HCT-15
Malme-3M = test system: Malme-3M
UO-31 = test system: UO-31
SK-MEL-5 = test system: SK-MEL-5
M14 = test system: M14
RPMI-8226 = test system: RPMI-8226
SF-268 = test system: SF-268
SF-295 = test system: SF-295
LOX IMVI = test system: LOX IMVI
U-251 = test system: U-251
CCRF-CEM = test system: CCRF-CEM
OVCAR-3 = test system: OVCAR-3
EKVX = test system: EKVX
HCC 2998 = test system: HCC 2998

| Compound | GI50 (NCI-H522) | GI50 (NCI-H460) | GI50 (UACC-62) | GI50 (OVCAR-8) | GI50 (HCT-116) | GI50 (UACC-257) | GI50 (HCT-15) | GI50 (Malme-3M) | GI50 (UO-31) | GI50 (SK-MEL-5) | GI50 (M14) | GI50 (RPMI-8226) | GI50 (SF-268) | GI50 (SF-295) | GI50 (LOX IMVI) | GI50 (U-251) | GI50 (CCRF-CEM) | GI50 (OVCAR-3) | GI50 (EKVX) | GI50 (HCC 2998) |
| --- | --- | --- | --- | --- | --- | --- | --- | --- | --- | --- | --- | --- | --- | --- | --- | --- | --- | --- | --- | --- |
| Cc1ccc(S(=O)(=O)NC(=O)NC(CCCCNC(=N)N)C(=O)O)cc1 (stereo unspecified) | > 100 µM (inactive) | > 100 µM (inactive) | > 100 µM (inactive) | > 100 µM (inactive) | > 100 µM (inactive) | > 100 µM (inactive) | > 100 µM | > 100 µM (inactive) | > 100 µM (inactive) | > 100 µM (inactive) | > 100 µM (inactive) | > 100 µM (inactive) | > 100 µM (inactive) | > 100 µM (inactive) | > 100 µM (inactive) | > 100 µM (inactive) | > 100 µM (inactive) | – | – | – |
| COc1cc(C2C(C(=O)NCc3ccccc3)=C(C)NC(C)=C2C(=O)NCc2ccccc2)ccc1O | – | 24.3 µM (inactive) | 21.8 µM (inactive) | 38.3 µM (inactive) | 44.7 µM (inactive) | 44.1 µM (inactive) | 27.6 µM | > 100 µM (inactive) | 65.3 µM (inactive) | 59.4 µM (inactive) | 34.4 µM (inactive) | 23 µM (inactive) | 34.9 µM (inactive) | 46 µM (inactive) | 32.6 µM (inactive) | 28.6 µM (inactive) | 26.3 µM (inactive) | 29.8 µM (inactive) | 16.6 µM (inactive) | 23.6 µM (inactive) |
| S=C(Cc1ccc2c(c1)Sc1ccccc1O2)N1CCOCC1 | – | 23.5 µM (inactive) | 28.6 µM (inactive) | 30.5 µM (inactive) | 8.32 µM (inactive) | 31.4 µM (inactive) | 41.9 µM | 23.8 µM (inactive) | 26.1 µM (inactive) | – | 40.6 µM (inactive) | 34.8 µM (inactive) | 32.6 µM (inactive) | 22.6 µM (inactive) | 45.4 µM (inactive) | 31.8 µM (inactive) | – | 49.5 µM (inactive) | 30.3 µM (inactive) | 86.1 µM (inactive) |
| O=C1NC2OCC(O)C(O1)C2O (stereo unspecified) | > 100 µM (inactive) | > 100 µM (inactive) | > 100 µM (inactive) | > 100 µM (inactive) | – | > 100 µM (inactive) | > 100 µM | > 100 µM (inactive) | > 100 µM (inactive) | > 100 µM (inactive) | > 100 µM (inactive) | > 100 µM (inactive) | > 100 µM (inactive) | > 100 µM (inactive) | > 100 µM (inactive) | > 100 µM (inactive) | > 100 µM (inactive) | > 100 µM (inactive) | > 100 µM (inactive) | – |
| C=C1CCC2[C@@H](CCC3[C@]2(C)CCC[C@]3(C)C(=O)OC)C1CCO (stereo partly specified) | 5.2 µM (inactive) | 6.49 µM (inactive) | 11.2 µM (inactive) | 18.8 µM (inactive) | 5.98 µM (inactive) | 5.98 µM (inactive) | 11.2 µM | 14.9 µM (inactive) | 14.7 µM (inactive) | 4.53 µM (inactive) | 13.6 µM (inactive) | 3.12 µM (inactive) | 11.3 µM (inactive) | 16.3 µM (inactive) | – | 11.1 µM (inactive) | 10.5 µM (inactive) | 12.6 µM (inactive) | 20.5 µM (inactive) | – |
| C=Cc1cnc([N+](=O)[O-])n1C | – | 56.8 µM (inactive) | – | > 100 µM (inactive) | 57.1 µM (inactive) | > 100 µM (inactive) | 50.2 µM | 38.1 µM (inactive) | 27.4 µM (inactive) | 83.2 µM (inactive) | 65.5 µM (inactive) | 40.1 µM (inactive) | 46.7 µM (inactive) | 35.2 µM (inactive) | 87.5 µM (inactive) | > 100 µM (inactive) | 46.1 µM (inactive) | 69.7 µM (inactive) | > 100 µM (inactive) | 42.7 µM (inactive) |
| O=C(O)C1(Cc2ccc3c(c2)CCC3)Cc2cc3c(cc2C1)CCC3 | – | – | > 100 µM (inactive) | > 100 µM (inactive) | > 100 µM (inactive) | – | > 100 µM | > 100 µM (inactive) | > 100 µM (inactive) | > 100 µM (inactive) | > 100 µM (inactive) | > 100 µM (inactive) | > 100 µM (inactive) | – | > 100 µM (inactive) | > 100 µM (inactive) | > 100 µM (inactive) | > 100 µM (inactive) | > 100 µM (inactive) | > 100 µM (inactive) |
| O=C1NC2(CCCCC2)C2CCCCC(O)C12 (stereo unspecified) | – | > 100 µM (inactive) | > 100 µM (inactive) | > 100 µM (inactive) | > 100 µM (inactive) | > 100 µM (inactive) | > 100 µM | > 100 µM (inactive) | > 100 µM (inactive) | – | – | > 100 µM (inactive) | > 100 µM (inactive) | > 100 µM (inactive) | – | > 100 µM (inactive) | > 100 µM (inactive) | > 100 µM (inactive) | > 100 µM (inactive) | > 100 µM (inactive) |
| O=CNCNCCO | – | > 100 µM (inactive) | 46.9 µM (inactive) | > 100 µM (inactive) | > 100 µM (inactive) | – | > 100 µM | > 100 µM (inactive) | > 100 µM (inactive) | > 100 µM (inactive) | > 100 µM (inactive) | 31.7 µM (inactive) | > 100 µM (inactive) | – | – | > 100 µM (inactive) | > 100 µM (inactive) | > 100 µM (inactive) | > 100 µM (inactive) | > 100 µM (inactive) |
| COc1ccc(OCC(C)(C)O)cc1 | – | > 100 µM (inactive) | > 100 µM (inactive) | > 100 µM (inactive) | > 100 µM (inactive) | > 100 µM (inactive) | > 100 µM | > 100 µM (inactive) | > 100 µM (inactive) | > 100 µM (inactive) | – | > 100 µM (inactive) | > 100 µM (inactive) | > 100 µM (inactive) | > 100 µM (inactive) | > 100 µM (inactive) | > 100 µM (inactive) | > 100 µM (inactive) | > 100 µM (inactive) | > 100 µM (inactive) |
| CCCOC1OC(CS(=O)(=O)O)C(O)C(O)C1O (stereo unspecified) | – | > 100 µM (inactive) | > 100 µM (inactive) | > 100 µM (inactive) | > 100 µM (inactive) | > 100 µM (inactive) | > 100 µM | > 100 µM (inactive) | > 100 µM (inactive) | > 100 µM (inactive) | > 100 µM (inactive) | > 100 µM (inactive) | – | > 100 µM (inactive) | > 100 µM (inactive) | > 100 µM (inactive) | > 100 µM (inactive) | > 100 µM (inactive) | – | > 100 µM (inactive) |
| CCCc1cc(=O)oc2c3c(c4c(c12)OC(C)(C)CC4)O[C@@H](C)[C@H](C)[C@H]3O | – | 8.49 µM (inactive) | 9.02 µM (inactive) | 13.3 µM (inactive) | 8.89 µM (inactive) | 4.94 µM (inactive) | 11.2 µM | 14.4 µM (inactive) | 6.12 µM (inactive) | 6.7 µM (inactive) | 11.8 µM (inactive) | 4.35 µM (inactive) | 15.1 µM (inactive) | 13.5 µM (inactive) | 15.4 µM (inactive) | 11.8 µM (inactive) | 3.98 µM (inactive) | 15.7 µM (inactive) | 12.2 µM (inactive) | 13.6 µM (inactive) |
| COc1ccc(/N=C\c2cc(OC)c(OC)c(OC)c2)cc1 | – | 85.9 µM (inactive) | 23.9 µM (inactive) | > 100 µM (inactive) | > 100 µM (inactive) | > 100 µM (inactive) | 29.2 µM | > 100 µM (inactive) | 64.9 µM (inactive) | > 100 µM (inactive) | – | 18.7 µM (inactive) | > 100 µM (inactive) | – | 17.5 µM (inactive) | > 100 µM (inactive) | 57.5 µM (inactive) | – | > 100 µM (inactive) | – |
| COc1cc(CO)c(CC(=O)NCCCc2ccccc2)cc1OC | – | > 100 µM (inactive) | > 100 µM (inactive) | > 100 µM (inactive) | > 100 µM (inactive) | > 100 µM (inactive) | > 100 µM | > 100 µM (inactive) | > 100 µM (inactive) | 67.9 µM (inactive) | > 100 µM (inactive) | – | – | – | > 100 µM (inactive) | > 100 µM (inactive) | > 100 µM (inactive) | > 100 µM (inactive) | > 100 µM (inactive) | > 100 µM (inactive) |
| CCOC(=O)c1csc(NC(=O)CCN2CCCCC2)n1 | – | > 100 µM (inactive) | > 100 µM (inactive) | > 100 µM (inactive) | – | > 100 µM (inactive) | > 100 µM | > 100 µM (inactive) | > 100 µM (inactive) | > 100 µM (inactive) | > 100 µM (inactive) | > 100 µM (inactive) | – | > 100 µM (inactive) | > 100 µM (inactive) | > 100 µM (inactive) | > 100 µM (inactive) | > 100 µM (inactive) | > 100 µM (inactive) | > 100 µM (inactive) |
| COc1ccc(C(C2C(=O)N(C)C(=O)N(C)C2=O)C(F)(F)C(=O)N(C)C)cc1 (stereo unspecified) | – | > 100 µM (inactive) | > 100 µM (inactive) | > 100 µM (inactive) | > 100 µM (inactive) | > 100 µM (inactive) | > 100 µM | > 100 µM (inactive) | > 100 µM (inactive) | > 100 µM (inactive) | > 100 µM (inactive) | > 100 µM (inactive) | > 100 µM (inactive) | > 100 µM (inactive) | > 100 µM (inactive) | > 100 µM (inactive) | > 100 µM (inactive) | > 100 µM (inactive) | > 100 µM (inactive) | > 100 µM (inactive) |
| O=C1CCC2COc3ccc(O)c1c32 (stereo unspecified) | – | > 100 µM (inactive) | > 100 µM (inactive) | > 100 µM (inactive) | > 100 µM (inactive) | > 100 µM (inactive) | > 100 µM | – | – | > 100 µM (inactive) | > 100 µM (inactive) | > 100 µM (inactive) | – | > 100 µM (inactive) | > 100 µM (inactive) | > 100 µM (inactive) | > 100 µM (inactive) | > 100 µM (inactive) | 51.2 µM (inactive) | – |
